From publication PMC7582776 (Molecules, 2020) come the findings set out here.

A word on the IC50: it is the concentration at which inhibition is half-maximal. Low readings indicate greater potency in that assay, high ones weaker potency in that assay. By Ki is commonly meant a measure of affinity in units of concentration, obtained from inhibition or displacement. Read a low Ki as tighter binding.

In assay [1] the target is T1, CYP2D6 (Homo sapiens, UniProt P10635).
T1 construct: native enzyme in ultrapooled human liver microsomes
T1 sequence (P10635 whole entry): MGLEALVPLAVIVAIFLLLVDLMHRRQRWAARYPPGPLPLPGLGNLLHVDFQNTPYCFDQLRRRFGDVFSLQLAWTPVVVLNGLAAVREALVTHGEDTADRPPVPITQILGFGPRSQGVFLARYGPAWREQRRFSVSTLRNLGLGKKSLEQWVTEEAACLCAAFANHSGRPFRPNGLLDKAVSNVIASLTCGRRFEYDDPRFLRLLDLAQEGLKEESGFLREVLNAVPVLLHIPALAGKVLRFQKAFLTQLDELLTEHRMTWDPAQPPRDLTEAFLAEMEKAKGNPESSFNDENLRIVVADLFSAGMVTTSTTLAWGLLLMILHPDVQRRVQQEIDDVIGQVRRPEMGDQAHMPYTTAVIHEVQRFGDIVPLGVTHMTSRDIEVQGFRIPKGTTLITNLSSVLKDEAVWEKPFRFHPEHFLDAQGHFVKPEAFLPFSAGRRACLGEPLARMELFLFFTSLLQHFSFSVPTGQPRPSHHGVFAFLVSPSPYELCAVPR
Put plainly: LC-MS/MS, bufuralol (substrate cocktail). The class given is biochemical.

Assay [2] concerns the target T1, CYP2D6. As to the kind of experiment: LC-MS/MS, bufuralol, Lineweaver-Burk/Dixon. The class given is biochemical.
Assay [3] deals with T2, CYP2C19 (Homo sapiens, UniProt P33261).
T2 construct: native enzyme in ultrapooled human liver microsomes
T2 sequence (P33261 whole entry): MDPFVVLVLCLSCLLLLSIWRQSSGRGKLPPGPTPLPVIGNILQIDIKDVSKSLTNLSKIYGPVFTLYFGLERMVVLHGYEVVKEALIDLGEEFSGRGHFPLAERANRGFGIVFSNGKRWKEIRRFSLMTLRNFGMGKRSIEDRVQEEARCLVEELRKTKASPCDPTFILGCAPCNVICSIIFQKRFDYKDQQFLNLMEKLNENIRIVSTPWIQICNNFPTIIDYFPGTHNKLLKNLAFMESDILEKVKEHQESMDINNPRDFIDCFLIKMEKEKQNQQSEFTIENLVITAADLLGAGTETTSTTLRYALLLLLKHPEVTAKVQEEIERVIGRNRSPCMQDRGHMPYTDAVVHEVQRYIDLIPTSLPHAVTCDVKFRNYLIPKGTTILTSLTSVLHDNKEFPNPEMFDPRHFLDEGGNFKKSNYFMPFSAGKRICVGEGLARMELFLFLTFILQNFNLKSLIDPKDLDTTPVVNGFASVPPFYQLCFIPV
As to the kind of experiment: LC-MS/MS, [S]-mephenytoin (substrate cocktail). The assay is classed as biochemical.

For assay [4], the target named is T3, OATP1B1 (Homo sapiens, UniProt Q9Y6L6).
T3 construct: gene SLCO1B1; transiently overexpressed in HEK293 cells (Corning)
T3 sequence (Q9Y6L6 1-691): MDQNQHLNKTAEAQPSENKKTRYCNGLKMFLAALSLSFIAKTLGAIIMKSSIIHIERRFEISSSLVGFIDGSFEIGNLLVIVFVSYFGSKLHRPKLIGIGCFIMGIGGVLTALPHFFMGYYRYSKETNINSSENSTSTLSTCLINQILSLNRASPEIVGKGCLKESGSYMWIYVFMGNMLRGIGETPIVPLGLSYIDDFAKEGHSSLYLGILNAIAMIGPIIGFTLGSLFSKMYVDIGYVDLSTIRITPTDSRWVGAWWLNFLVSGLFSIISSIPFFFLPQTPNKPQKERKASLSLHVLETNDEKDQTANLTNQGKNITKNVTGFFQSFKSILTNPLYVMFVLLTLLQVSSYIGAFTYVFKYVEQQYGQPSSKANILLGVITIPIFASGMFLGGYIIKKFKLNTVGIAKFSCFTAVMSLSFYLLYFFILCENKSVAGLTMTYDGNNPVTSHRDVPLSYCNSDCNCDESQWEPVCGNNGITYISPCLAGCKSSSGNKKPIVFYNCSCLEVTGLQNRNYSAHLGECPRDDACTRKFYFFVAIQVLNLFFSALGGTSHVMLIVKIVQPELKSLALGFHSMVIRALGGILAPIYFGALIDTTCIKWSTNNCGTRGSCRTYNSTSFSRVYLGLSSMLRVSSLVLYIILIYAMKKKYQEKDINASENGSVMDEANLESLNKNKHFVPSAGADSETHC
As to the kind of experiment: [3H]estrone-3-sulfate uptake in HEK293-OATP1B1 cells. The class given is cell-based.

The target in assay [5] is T2, CYP2C19. As to the kind of experiment: LC-MS/MS, [S]-mephenytoin, Lineweaver-Burk/Dixon. The assay is classed as biochemical.
Assay [6] has as its target T4, CYP2C9 (Homo sapiens, UniProt P11712).
T4 construct: native enzyme in ultrapooled human liver microsomes
Put plainly: LC-MS/MS, diclofenac, Lineweaver-Burk/Dixon. The class given is biochemical.

Assay [7] concerns the target T5, CYP2B6 (Homo sapiens, UniProt P20813).
T5 construct: native enzyme in ultrapooled human liver microsomes
T5 sequence (P20813 1-491): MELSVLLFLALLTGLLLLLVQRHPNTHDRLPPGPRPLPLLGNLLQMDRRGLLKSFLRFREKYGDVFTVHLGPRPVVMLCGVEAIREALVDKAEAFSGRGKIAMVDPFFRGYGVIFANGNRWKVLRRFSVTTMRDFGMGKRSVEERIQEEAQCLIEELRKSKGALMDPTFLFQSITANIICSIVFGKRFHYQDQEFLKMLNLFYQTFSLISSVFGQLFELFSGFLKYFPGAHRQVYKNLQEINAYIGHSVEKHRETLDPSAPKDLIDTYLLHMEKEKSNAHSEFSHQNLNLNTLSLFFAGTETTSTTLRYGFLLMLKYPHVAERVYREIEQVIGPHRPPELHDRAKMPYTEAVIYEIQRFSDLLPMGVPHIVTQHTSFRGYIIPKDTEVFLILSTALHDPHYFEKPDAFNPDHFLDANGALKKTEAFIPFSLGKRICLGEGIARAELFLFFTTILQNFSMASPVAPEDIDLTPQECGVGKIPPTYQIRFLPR
As to the kind of experiment: LC-MS/MS, bupropion hydroxylation. The class given is biochemical. The text has this: LC-MS/MS, bupropion hydroxylation on CYP2B6

In assay [8] the target is T6, CYP2C8 (Homo sapiens, UniProt P10632).
T6 construct: native enzyme in ultrapooled human liver microsomes
T6 sequence (P10632 1-490): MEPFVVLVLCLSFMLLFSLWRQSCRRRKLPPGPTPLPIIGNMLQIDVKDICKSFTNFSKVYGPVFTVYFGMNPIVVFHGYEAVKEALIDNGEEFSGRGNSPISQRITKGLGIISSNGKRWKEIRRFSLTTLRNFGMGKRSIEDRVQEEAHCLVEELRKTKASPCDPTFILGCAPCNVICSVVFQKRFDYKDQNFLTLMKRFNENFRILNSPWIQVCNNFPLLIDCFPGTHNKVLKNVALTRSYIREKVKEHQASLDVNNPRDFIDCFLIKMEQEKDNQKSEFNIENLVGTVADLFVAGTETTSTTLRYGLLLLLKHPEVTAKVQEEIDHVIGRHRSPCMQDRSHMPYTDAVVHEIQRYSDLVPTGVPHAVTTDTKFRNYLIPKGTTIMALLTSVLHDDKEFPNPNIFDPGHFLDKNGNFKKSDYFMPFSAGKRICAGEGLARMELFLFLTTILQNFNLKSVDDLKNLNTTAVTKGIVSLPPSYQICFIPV
As to the kind of experiment: LC-MS/MS, amodiaquine N-de-ethylation, Lineweaver-Burk/Dixon. The assay is classed as biochemical. The text has this: LC-MS/MS, amodiaquine N-de-ethylation, Lineweaver-Burk/Dixon on CYP2C8

Assay [9] has as its target T4, CYP2C9. Put plainly: LC-MS/MS, diclofenac (substrate cocktail). The class given is biochemical.
The target of assay [10] is T7, CYP1A2 (Homo sapiens, UniProt P05177).
T7 construct: native enzyme in ultrapooled human liver microsomes
T7 sequence (P05177 2-516): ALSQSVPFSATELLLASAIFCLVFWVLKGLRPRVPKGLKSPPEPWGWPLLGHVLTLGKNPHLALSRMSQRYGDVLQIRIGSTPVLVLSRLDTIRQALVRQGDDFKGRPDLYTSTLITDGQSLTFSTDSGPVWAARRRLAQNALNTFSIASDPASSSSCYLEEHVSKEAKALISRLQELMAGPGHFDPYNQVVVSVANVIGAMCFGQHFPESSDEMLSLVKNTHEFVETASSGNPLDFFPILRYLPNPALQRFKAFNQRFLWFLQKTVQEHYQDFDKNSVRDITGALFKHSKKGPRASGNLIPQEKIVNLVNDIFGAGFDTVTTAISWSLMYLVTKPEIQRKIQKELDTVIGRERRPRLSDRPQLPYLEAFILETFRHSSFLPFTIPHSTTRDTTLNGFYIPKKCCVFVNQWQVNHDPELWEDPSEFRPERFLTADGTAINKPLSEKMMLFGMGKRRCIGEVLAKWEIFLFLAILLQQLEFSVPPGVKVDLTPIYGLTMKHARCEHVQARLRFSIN
Put plainly: LC-MS/MS, phenacetin O-de-ethylation (substrate cocktail). The class given is biochemical. The text has this: LC-MS/MS, phenacetin O-de-ethylation (substrate cocktail) on CYP1A2

Assay [11] has as its target T6, CYP2C8. As to the kind of experiment: LC-MS/MS, amodiaquine N-de-ethylation (substrate cocktail). The assay is classed as biochemical. The text has this:
LC-MS/MS, amodiaquine N-de-ethylation (substrate cocktail) on CYP2C8

For assay [12], the target named is T5, CYP2B6. Put plainly: LC-MS/MS, bupropion hydroxylation, Lineweaver-Burk/Dixon. The assay is classed as biochemical. The text has this:
LC-MS/MS, bupropion hydroxylation, Lineweaver-Burk/Dixon on CYP2B6

Assay [13] concerns the target T3, OATP1B1. Put plainly: [3H]estrone-3-sulfate uptake in HEK293-OATP1B1 cells, Lineweaver-Burk. The assay is classed as cell-based. The text has this: [3H]estrone-3-sulfate uptake in HEK293-OATP1B1 cells, Lineweaver-Burk on OATP1B1

Bounds are passed on as bounds.

T4 sequence (P11712 whole entry): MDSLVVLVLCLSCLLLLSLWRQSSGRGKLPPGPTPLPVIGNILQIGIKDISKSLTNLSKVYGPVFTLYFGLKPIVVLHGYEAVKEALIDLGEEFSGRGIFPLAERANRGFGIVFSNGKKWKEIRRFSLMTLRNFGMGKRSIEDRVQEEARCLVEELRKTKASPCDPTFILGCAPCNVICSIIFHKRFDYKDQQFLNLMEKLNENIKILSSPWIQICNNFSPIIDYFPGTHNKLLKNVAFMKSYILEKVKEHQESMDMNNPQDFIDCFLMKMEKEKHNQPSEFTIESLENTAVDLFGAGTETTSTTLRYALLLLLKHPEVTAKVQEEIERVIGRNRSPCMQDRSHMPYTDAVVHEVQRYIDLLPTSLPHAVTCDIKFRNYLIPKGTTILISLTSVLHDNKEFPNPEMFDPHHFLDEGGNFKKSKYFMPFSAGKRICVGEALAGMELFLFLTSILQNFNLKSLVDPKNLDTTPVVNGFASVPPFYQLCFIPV

For the compound `CC(C)[C@H](NC(=O)c1nn(Cc2ccc(F)cc2)c2ccccc12)C(N)=O` [AB-FUBINACA, N-[(1S)-1-(aminocarbonyl)-2-methylpropyl]-1-[(4-fluorophenyl)methyl]-1H-indazole-3-carboxamide], the IC50 in assay [1] is 40.4 µM; in assay [3] it was 19.7 µM; in assay [4] it was 85.6 µM; in assay [7], 29.9 µM; in [9] it was 13.5 µM; in assay [10], greater than 100 µM. The same compound displayed a half-inhibitory concentration (IC50) in [11] of 44.3 µM. Also, the Ki was found to be 20.8 µM in assay [2]; 6.3 µM in [5]; 13.1 µM in assay [6]; 19.9 µM in assay [8]; 15 µM in [12]; 94.4 µM in assay [13].
